Measurements taken from paper doi:10.1101/2025.08.13.670037v1 (bioRxiv, 2025).
No end group written: not given here.

Test: Stability of peptide in human plasma
Type: in vitro ADME

**Q.** For “PVLDLFRELLNELLEALKQKLKPDWLKAFYDKVAEKLKEAF [22A-P-18A]”, which “peptide lost, in sHDL particles” value (human plasma, 24h incubation) is on record?
**A.** Its value is 15%.

**Q.** And the remaining at 24 h, 0.25 mg/mL (human, plasma, SD)?
**A.** The remaining at 24 h, 0.25 mg/mL was 73.6 ± 6.3%.
